Experimental data from paper doi:10.1101/2022.02.23.481604v2 (biorxiv, 2022).
Where a name gives a salt, the structure may show the parent alone.

How the values were obtained:
Test in all cases: cAMP formation in membranes
[1] = biological target: mAC3 activated by Gsα (Q227L) (Homo sapiens, UniProt O60266); format: biochemical
[2] = biological target: mAC7 activated by Gsα (Q227L) (Homo sapiens, UniProt P51828); format: biochemical
[3] = biological target: mAC6 activated by Gsα (Q227L) (Homo sapiens, UniProt O43306); format: biochemical
[4] = biological target: mAC9 activated by Gsα (Q227L) (Homo sapiens, UniProt O60503); format: biochemical
mAC7 = biological target: T1, mAC7 (Homo sapiens, UniProt P51828); format: biochemical
T1 sequence (P51828 1-1080): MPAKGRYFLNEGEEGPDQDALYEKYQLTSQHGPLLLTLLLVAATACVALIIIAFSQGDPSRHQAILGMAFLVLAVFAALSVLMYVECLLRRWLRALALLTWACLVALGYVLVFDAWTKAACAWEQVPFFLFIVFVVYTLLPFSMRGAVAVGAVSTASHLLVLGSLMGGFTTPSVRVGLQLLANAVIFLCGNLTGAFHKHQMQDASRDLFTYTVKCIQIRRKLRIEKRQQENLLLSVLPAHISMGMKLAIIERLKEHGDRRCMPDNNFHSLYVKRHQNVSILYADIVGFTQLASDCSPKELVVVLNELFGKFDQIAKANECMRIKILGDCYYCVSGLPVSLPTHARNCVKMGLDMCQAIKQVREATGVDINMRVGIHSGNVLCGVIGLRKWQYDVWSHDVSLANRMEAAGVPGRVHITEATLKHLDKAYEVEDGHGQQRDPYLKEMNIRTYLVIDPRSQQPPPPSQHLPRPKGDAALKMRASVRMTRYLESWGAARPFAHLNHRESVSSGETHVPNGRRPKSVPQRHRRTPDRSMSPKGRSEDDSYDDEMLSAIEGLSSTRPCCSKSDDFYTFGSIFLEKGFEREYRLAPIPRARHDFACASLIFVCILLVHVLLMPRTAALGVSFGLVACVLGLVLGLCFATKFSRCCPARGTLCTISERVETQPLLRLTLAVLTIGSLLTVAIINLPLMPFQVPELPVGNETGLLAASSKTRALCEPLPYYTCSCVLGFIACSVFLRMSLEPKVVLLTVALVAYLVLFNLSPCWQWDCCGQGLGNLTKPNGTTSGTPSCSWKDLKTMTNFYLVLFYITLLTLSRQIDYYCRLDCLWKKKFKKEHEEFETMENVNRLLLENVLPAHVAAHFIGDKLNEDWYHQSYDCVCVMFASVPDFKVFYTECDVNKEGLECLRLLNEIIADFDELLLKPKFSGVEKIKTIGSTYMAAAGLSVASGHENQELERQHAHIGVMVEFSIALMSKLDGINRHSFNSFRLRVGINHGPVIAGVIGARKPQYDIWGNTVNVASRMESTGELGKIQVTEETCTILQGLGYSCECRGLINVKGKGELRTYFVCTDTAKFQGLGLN

mAC1 = mAC1 (Homo sapiens, UniProt Q08828); format: biochemical
[5] = substrate: Nc1ncnc2c1ncn2[C@@H]1O[C@H](COP(=O)(O)OP(=O)(O)OP(=O)(O)O)[C@@H](O)[C@H]1O; format: biochemical, Homo sapiens; conditions: without SDPA, Gsα presence inferred from Vmax, Mg2+, pH 7.5

Chain of mAC3 activated by Gsα (Q227L) (P63092 2-394 Q227L partner, one chain of several): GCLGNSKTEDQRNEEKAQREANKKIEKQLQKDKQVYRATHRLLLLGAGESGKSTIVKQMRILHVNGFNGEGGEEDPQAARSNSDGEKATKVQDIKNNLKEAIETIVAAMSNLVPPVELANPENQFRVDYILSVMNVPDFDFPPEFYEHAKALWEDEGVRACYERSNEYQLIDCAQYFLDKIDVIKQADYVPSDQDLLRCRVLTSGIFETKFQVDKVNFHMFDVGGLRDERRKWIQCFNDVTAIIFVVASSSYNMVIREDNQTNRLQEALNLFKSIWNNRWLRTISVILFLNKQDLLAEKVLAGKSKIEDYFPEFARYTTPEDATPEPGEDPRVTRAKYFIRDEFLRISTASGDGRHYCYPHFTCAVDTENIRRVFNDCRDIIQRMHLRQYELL
Chain of mAC6 activated by Gsα (Q227L) (O43306 whole entry, stated change not applied): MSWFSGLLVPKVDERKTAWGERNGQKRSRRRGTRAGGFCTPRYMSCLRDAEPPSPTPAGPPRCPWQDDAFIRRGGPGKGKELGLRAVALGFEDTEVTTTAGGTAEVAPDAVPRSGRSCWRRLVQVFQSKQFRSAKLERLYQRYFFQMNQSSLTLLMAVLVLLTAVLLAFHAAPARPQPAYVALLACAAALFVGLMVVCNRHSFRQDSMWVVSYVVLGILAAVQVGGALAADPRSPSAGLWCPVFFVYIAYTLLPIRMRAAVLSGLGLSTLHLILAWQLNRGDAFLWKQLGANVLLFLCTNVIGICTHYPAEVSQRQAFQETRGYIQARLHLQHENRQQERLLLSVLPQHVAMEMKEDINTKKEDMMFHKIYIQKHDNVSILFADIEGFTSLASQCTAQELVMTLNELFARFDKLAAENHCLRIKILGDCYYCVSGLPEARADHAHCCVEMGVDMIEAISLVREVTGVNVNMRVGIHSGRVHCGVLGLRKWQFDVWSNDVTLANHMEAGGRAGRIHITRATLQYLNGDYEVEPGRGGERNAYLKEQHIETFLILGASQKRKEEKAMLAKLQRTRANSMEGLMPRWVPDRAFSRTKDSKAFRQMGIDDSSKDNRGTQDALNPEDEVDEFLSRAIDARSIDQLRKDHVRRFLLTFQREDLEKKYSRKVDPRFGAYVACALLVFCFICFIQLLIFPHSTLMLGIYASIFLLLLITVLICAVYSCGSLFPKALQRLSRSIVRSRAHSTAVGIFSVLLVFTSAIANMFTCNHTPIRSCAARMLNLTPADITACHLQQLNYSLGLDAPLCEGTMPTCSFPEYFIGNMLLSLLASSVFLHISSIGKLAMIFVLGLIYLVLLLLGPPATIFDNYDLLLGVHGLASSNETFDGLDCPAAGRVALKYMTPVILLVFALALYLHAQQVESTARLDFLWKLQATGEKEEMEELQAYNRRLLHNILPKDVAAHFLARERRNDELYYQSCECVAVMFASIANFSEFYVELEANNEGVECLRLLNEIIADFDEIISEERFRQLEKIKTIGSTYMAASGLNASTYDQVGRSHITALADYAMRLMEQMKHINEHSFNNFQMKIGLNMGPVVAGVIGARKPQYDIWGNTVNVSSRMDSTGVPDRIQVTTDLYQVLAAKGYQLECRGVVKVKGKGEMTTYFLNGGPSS
Chain of mAC6 activated by Gsα (Q227L) (P63092 2-394 Q227L partner): as the sequence (P63092 2-394 Q227L partner, one chain of several) above
Chain of mAC7 activated by Gsα (Q227L) (P63092 2-394 Q227L partner, one chain of several): as above
Chain of mAC9 activated by Gsα (Q227L) (O60503 whole entry, stated change not applied): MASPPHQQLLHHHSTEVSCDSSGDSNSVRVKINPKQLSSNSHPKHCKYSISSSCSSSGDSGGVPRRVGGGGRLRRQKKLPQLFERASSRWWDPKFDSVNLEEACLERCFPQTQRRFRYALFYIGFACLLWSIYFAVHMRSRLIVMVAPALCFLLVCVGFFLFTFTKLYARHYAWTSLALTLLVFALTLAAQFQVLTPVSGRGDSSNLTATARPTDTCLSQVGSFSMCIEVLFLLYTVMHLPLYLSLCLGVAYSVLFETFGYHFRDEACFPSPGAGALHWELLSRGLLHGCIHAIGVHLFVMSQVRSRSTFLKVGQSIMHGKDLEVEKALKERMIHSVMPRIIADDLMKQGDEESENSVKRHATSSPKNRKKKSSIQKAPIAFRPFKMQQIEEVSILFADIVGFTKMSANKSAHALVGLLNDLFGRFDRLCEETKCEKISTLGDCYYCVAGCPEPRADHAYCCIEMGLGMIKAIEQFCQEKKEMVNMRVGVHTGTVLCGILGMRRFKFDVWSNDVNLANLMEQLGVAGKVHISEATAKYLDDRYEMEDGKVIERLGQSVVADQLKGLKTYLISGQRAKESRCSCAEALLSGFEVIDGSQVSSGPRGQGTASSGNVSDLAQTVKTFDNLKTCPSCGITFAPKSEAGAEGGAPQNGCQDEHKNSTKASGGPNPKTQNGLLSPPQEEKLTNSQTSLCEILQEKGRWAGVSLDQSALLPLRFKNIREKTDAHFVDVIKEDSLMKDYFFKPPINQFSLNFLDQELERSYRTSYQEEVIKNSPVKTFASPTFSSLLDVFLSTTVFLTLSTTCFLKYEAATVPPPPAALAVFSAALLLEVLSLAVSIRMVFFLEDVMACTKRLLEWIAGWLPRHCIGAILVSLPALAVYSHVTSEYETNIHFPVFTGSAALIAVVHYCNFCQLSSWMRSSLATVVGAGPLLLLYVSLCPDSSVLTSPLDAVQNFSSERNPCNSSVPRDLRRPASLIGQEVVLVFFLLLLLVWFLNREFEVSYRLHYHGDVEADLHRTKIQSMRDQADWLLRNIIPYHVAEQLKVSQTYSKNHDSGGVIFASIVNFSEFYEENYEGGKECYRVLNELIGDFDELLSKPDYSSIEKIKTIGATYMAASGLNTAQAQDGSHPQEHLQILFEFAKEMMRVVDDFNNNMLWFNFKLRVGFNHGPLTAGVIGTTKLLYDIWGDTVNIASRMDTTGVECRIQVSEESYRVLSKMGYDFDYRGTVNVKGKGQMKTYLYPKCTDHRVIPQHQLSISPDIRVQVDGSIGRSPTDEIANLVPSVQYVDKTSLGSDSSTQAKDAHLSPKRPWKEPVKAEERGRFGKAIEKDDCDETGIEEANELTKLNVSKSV
Chain of mAC9 activated by Gsα (Q227L) (P63092 2-394 Q227L partner): as the sequence (P63092 2-394 Q227L partner, one chain of several) above
Chain of mAC1 (Q08828 whole entry): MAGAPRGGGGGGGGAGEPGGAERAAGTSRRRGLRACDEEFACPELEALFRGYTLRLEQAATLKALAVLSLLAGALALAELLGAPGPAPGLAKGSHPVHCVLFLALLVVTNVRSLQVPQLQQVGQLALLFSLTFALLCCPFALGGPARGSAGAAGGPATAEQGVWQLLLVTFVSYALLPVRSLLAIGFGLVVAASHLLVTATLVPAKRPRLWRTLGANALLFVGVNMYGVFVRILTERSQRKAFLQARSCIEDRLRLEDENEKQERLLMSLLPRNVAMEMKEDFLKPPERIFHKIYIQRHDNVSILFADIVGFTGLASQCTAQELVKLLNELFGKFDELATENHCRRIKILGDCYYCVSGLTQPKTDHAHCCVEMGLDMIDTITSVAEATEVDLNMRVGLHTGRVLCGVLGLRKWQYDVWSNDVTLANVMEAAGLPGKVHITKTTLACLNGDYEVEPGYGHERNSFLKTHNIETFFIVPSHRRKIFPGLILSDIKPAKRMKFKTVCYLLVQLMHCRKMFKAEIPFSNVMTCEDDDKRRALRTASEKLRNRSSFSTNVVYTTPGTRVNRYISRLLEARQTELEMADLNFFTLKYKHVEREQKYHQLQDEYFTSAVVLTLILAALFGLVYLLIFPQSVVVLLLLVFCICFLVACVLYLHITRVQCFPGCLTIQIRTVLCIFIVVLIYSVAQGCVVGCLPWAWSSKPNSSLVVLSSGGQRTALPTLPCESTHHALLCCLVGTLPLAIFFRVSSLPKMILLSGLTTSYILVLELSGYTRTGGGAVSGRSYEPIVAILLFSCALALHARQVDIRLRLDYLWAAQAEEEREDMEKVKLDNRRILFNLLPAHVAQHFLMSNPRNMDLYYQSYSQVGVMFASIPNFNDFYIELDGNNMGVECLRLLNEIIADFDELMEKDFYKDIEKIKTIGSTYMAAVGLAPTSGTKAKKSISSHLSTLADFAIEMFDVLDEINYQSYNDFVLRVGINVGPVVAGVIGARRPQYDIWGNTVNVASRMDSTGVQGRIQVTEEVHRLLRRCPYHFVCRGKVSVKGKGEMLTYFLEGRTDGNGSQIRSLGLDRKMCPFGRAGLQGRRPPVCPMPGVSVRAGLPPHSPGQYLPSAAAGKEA

For `CCCCC/C=C\C/C=C\C/C=C\C/C=C\CCCC(=O)O[C@H](COC(=O)CCCCCCCCCCCCCCCCC)COP(=O)(O)O` [SAPA, 1-stearoyl-2-arachidonoyl-sn-glycero-3-phosphate (sodium salt)], the EC50 [1] was 4800 nM.

In the case of `CC/C=C\C/C=C\C/C=C\C/C=C\C/C=C\C/C=C\CCC(=O)O[C@H](COC(=O)CCCCCCCCCCCCCCCCC)COP(=O)(O)OC[C@H](N)C(=O)O` [SDPS, 1-stearoyl-2-docosahexaenoyl-sn-glycero-3-phospho-L-serine], the EC50 [1] is reported as 1200 nM.

`CC/C=C\C/C=C\C/C=C\C/C=C\C/C=C\C/C=C\CCC(=O)O[C@H](COC(=O)CCCCCCCCCCCCCCCCC)COP(=O)(O)O` [SDPA, 1-stearoyl-2-docosahexaenoyl-sn-glycero-3-phosphate (sodium salt)] showed an EC50 [2] of 700 nM, an EC50 [3] of 700 nM and an EC50 [4] of 700 nM. It also gave an EC50 [1] of 900 nM.

With `C=C[C@@]1(C)CC(=O)[C@]2(O)[C@@]3(C)[C@@H](O)CCC(C)(C)[C@@H]3[C@H](O)[C@H](OC(C)=O)[C@@]2(C)O1` [forskolin] the EC50 (mAC7) was 512000 nM and the EC50 (mAC1) was 2000 nM.

Molecule `CC/C=C\C/C=C\C/C=C\C/C=C\C/C=C\C/C=C\CCC(=O)OC[C@H](COP(=O)(O)O)OC(=O)CC/C=C\C/C=C\C/C=C\C/C=C\C/C=C\C/C=C\CC` [DDPA, 1,2-didocosahexaenoyl-sn-glycero-3-phosphate (sodium salt)] has an EC50 [1] of 1400 nM.

`CC/C=C\C/C=C\C/C=C\C/C=C\C/C=C\C/C=C\CCC(=O)O[C@H](COC(=O)CCCCCCCCCCCCCCC)COP(=O)(O)O` [PDPA, 1-palmitoyl-2-docosahexaenoyl-sn-glycero-3-phosphate (sodium salt)] gave an EC50 [1] of 1300 nM.

B1: mAC3 activated by Gsα (Q227L) (Homo sapiens) (protein)
chain: MPRNQGFSEPEYSAEYSAEYSVSLPSDPDRGVGRTHEISVRNSGSCLCLPRFMRLTFVPESLENLYQTYFKRQRHETLLVLVVFAALFDCYVVVMCAVVFSSDKLASLAVAGIGLVLDIILFVLCKKGLLPDRVTRRVLPYVLWLLITAQIFSYLGLNFARAHAASDTVGWQVFFVFSFFITLPLSLSPIVIISVVSCVVHTLVLGVTVAQQQQEELKGMQLLREILANVFLYLCAIAVGIMSYYMADRKHRKAFLEARQSLEVKMNLEEQSQQQENLMLSILPKHVADEMLKDMKKDESQKDQQQFNTMYMYRHENVSILFADIVGFTQLSSACSAQELVKLLNELFARFDKLAAKYHQLRIKILGDCYYCICGLPDYREDHAVCSILMGLAMVEAISYVREKTKTGVDMRVGVHTGTVLGGVLGQKRWQYDVWSTDVTVANKMEAGGIPGRVHISQSTMDCLKGEFDVEPGDGGSRCDYLEEKGIETYLIIASKPEVKKTATQNGLNGSALPNGAPASSKSSSPALIETKEPNGSAHSSGSTSEKPEEQDAQADNPSFPNPRRRLRLQDLADRVVDASEDEHELNQLLNEALLERESAQVVKKRNTFLLSMRFMDPEMETRYSVEKEKQSGAAFSCSCVVLLCTALVEILIDPWLMTNYVTFMVGEILLLILTICSLAAIFPRAFPKKLVAFSTWIDRTRWARNTWAMLAIFILVMANVVDMLSCLQYYTGPSNATAGMETEGSCLENPKYYNYVAVLSLIATIMLVQVSHMVKLTLMLLVAGAVATINLYAWRPVFDEYDHKRFREHDLPMVALEQMQGFNPGLNGTDRLPLVPSKYSMTVMVFLMMLSFYYFSRHVEKLARTLFLWKIEVHDQKERVYEMRRWNEALVTNMLPEHVARHFLGSKKRDEELYSQTYDEIGVMFASLPNFADFYTEESINNGGIECLRFLNEIISDFDSLLDNPKFRVITKIKTIGSTYMAASGVTPDVNTNGFASSNKEDKSERERWQHLADLADFALAMKDTLTNINNQSFNNFMLRIGMNKGGVLAGVIGARKPHYDIWGNTVNVASRMESTGVMGNIQVVEETQVILREYGFRFVRRGPIFVKGKGELLTFFLKGRDKLATFPNGPSVTLPHQVVDNS
Work on B1 yielded a Km [5] of 100 µM.
